Results: article PMC12481576, “Barbituric Acid Derivatives as Covalent Inhibitors of Leishmania braziliensis Dihydroorotate Dehydrogenase” (Journal of Medicinal Chemistry, 2025)
Like-named read-outs stand apart in the source and are kept apart here.

What was measured:
[1] = biological target: T1, LbDHODH (Leishmania braziliensis, UniProt E9AI53); assay: biochemical; details: for IC50: LbDHODH
Experimental: To assess the ability of compounds 2a–2i to inhibit LbDHODH via covalent bond formation with Cys^131, we initially screened them at a concentration of 100 μM under two conditions: with and without a 4-h preincubation with the enzyme.
The experiments were performed in a 96-well microplate reader (SpectraMax Plus 384, Molecular Devices, USA), containing the […] of the buffer 60 mM DCIP, 50 mM Tris pH 8.15, 150 mM KCl, 0.1% Triton X-100, 50 μM DHO and 10 μM of LbDHODH at 165 nM. The reaction was monitored every 3 s at 610 nm over a period of 60 s, in triplicate, for the control and each concentration of the inhibitor. All assays were performed without incubation (0h) and with 4-h preincubation of the inhibitor with LbDHODH, using 5% DMSO (v/v) as control. […]. […] The resulting kobs values were plotted as a function of inhibitor concentration, and the data in the initial linear region was fit to determine the slope, which is kinact/KI. All regressions were performed with GraphPad Prism 9.

[2] = biological target: T1, LbDHODH; assay: Kinact/KI determination from LbDHODH progress curves (kobs vs inhibitor concentration); type: biochemical
Excerpt: The Kinact/Ki ratio is a key parameter for evaluating the potency of covalent inhibitors, as it quantitatively measures both their reactivity and affinity for the target enzyme. This parameter integrates two crucial aspects: KI, which reflects the inhibitor’s binding affinity, and Kinact, which describes the rate at which the covalent bond is formed. […] Therefore, this ratio is essential for ranking covalent inhibitors, optimizing their potency, and guiding structure-based drug design.
The experiments were performed in a 96-well microplate reader (SpectraMax Plus 384, Molecular Devices, USA), containing the […] of the buffer 60 mM DCIP, 50 mM Tris pH 8.15, 150 mM KCl, 0.1% Triton X-100, 50 μM DHO and 10 μM of LbDHODH at 165 nM. The reaction was monitored every 3 s at 610 nm over a period of 60 s, in triplicate, for the control and each concentration of the inhibitor. All assays were performed without incubation (0h) and with 4-h preincubation of the inhibitor with LbDHODH, using 5% DMSO (v/v) as control. […] To determine the IC50 values, the activity percentage data were fitted as a function of the concentration logarithm by nonlinear regression analysis (variable hillslope) using Prism 9.0 software (GraphPad Software, USA). […] The resulting kobs values were plotted as a function of inhibitor concentration, and the data in the initial linear region was fit to determine the slope, which is kinact/KI. All regressions were performed with GraphPad Prism 9.

[3] = biological target: T2, HsDHODH (Homo sapiens, UniProt Q02127); assay: Selectivity assay: HsDHODH single-dose inhibition (DCIP reduction); type: biochemical
T2 construct: made in house
T2 sequence (Q02127 whole entry): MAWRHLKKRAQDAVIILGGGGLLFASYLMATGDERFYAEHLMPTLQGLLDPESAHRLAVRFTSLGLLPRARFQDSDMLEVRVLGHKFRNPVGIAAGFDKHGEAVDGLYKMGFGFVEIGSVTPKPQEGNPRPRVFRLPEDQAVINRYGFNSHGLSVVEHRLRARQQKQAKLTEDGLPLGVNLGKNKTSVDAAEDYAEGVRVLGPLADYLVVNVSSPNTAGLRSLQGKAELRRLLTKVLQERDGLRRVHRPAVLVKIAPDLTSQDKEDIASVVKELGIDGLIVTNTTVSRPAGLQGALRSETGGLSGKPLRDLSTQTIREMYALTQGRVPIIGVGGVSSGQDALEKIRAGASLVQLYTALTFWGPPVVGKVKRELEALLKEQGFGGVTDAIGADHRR
Experimental: […]. This finding highlights the potential of barbituric acid derivatives as selective inhibitors of LbDHODH.
Human DHODH expression and purification were conducted following a protocol previously established in our laboratory. The purification was carried out by affinity chromatography on a Ni-NTA Agarose column (Qiagen[…] Cat. No. 30210). […] The reaction was performed in triplicate, initiated by adding 195 μL of reaction buffer to 5 μL of HsDHODH protein solution for a final concentration of 20 nM enzyme. As a blank, 195 μL of reaction buffer was added to 5 μL of Buffer A. The reaction was monitored at 610 nm every 3 s over 60 s. As a control, 5 μL of enzyme was added to 195 μL of reaction medium without compound. Enzymatic velocity was calculated, and the percentage of relative enzymatic activity was determined relative to the control.

[4] = test system: Leishmania braziliensis promastigotes; assay: Leishmanicidal activity, promastigote growth (SYBR Green, 72 h); type: cell-based, Leishmania (V.) braziliensis (MHOM/BR/1975/M2904); details: Leishmania braziliensis, L. braziliensis promastigotes, max 200 μM
Experimental: The cultures were adjusted to 4 × 10^6 parasites per mL, and 50 μL of each culture was added on a test plate with 384 wells (Corning, #CLS3658), along with the controls and compounds to be tested. Previously diluted compounds in DMSO were added to plates in decreasing concentrations, with a maximum concentration of 200 μM. Parasites were exposed to a final concentration of DMSO in various dilutes (final = 0.5%), and the culture medium was used as the control for the experiment. […] After adding the lysis buffer, the plates were incubated in the dark for 2 h with gentle shaking. The readings were done using a SpectraMax M3 reader (excitation at 485 nm and emission at 535 nm).

[5] = Cell viability / cytotoxicity assay (PrestoBlue, 72 h); type: cell-based; details: human; THP-1 cell line, 72 h, max 200 μM; read-out: CC50
Experimental: THP-1 cells (American Type Cell Collection, #TIB-202) were acquired in 2019 and stored frozen in liquid nitrogen. The cells were then maintained in RPMI 1640 (Thermo Fisher Scientific, #S31800–022) at 37 °C in a 5% CO2 atmosphere and routinely tested for Mycoplasma contamination by PCR using the primers 5′-[…] and 5′-[…]. To test the toxicity of compounds, 5000 cells were added to 96-well plates with a final volume of 80 μL centrifuged at 400g for 2 min and incubated with 150 ng/mL of phorbol myristate acetate (Merck, #P8139) for 48 h. The medium was replaced, and after 24 h, the compounds were added and tested at decreasing concentrations starting from 200 μM (10 μL/well). After 72 h of incubation, 10 μL of PrestoBlue Cell Viability Reagent (Thermo Fisher Scientific, #A13262) was added per well. After adding the reagent, the cells were incubated for 2 h at 37 °C in a 5% CO2 atmosphere, and fluorescence readings were performed using the SpectraMax M3 reader (excitation at 560 nm and emission at 590 nm).

[6] = 0 h, pH 8.15, read-out: LbDHODH Activity±SD (%)
[7] = 4 h, pH 8.15, read-out: LbDHODH Activity±SD (%)
[8] = read-out: Single dose (0h) % activity
[9] = read-out: Single dose (4h) % activity

T1 sequence (E9AI53 entry or part of it): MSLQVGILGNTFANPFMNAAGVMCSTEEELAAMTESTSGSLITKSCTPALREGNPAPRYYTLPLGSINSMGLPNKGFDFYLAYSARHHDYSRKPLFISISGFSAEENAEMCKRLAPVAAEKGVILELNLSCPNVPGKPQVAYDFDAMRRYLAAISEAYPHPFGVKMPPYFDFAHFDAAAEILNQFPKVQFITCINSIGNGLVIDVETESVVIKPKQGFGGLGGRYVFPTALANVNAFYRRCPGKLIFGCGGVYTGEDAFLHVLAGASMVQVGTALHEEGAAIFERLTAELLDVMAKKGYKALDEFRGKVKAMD

Q: Which activity at 0.195312 µM [1, 6] does the source give for `O=C1NC(=O)C(=Cc2ccccc2)C(=O)N1` [2a, 5-Benzylidenepyrimidine-2,4,6(1H,3H,5H)-trione] here?
A: The activity at 0.195312 µM was 108 ± 9%.

Q: What about the activity at 0.390625 µM [1, 6] of the same compound?
A: The activity at 0.390625 µM was 106 ± 13%.

Q: And the activity at 0.78125 µM [1, 6]?
A: The activity at 0.78125 µM was 110 ± 8%.

Q: What about the activity at 1.5625 µM [1, 6] of the same compound?
A: The activity at 1.5625 µM was 103 ± 8%.

Q: And the activity at 3.125 µM [1, 6]?
A: Its activity at 3.125 µM is 106 ± 8%.

Q: What about the activity at 6.25 µM [1, 6] of the same compound?
A: The activity at 6.25 µM was 88 ± 10%.

Q: What about the activity at 12.5 µM [1, 6] of the same compound?
A: Its activity at 12.5 µM is 73 ± 9%.

Q: And the activity at 25 µM [1, 6]?
A: Its activity at 25 µM is 60 ± 9%.

Q: What about the activity at 50 µM [1, 6] of the same compound?
A: The activity at 50 µM was 54 ± 9%.

Q: And the activity at 100 µM [1, 6]?
A: The activity at 100 µM was 36 ± 5%.

Q: What about the activity at 200 µM [1, 6] of the same compound?
A: Its activity at 200 µM is 27 ± 9%.

Q: And the activity at 400 µM [1, 6]?
A: The activity at 400 µM was 20 ± 2%.

Q: And the activity at 0.195312 µM [1, 7]?
A: The activity at 0.195312 µM was 110 ± 16%.

Q: And the activity at 0.390625 µM [1, 7]?
A: Its activity at 0.390625 µM is 92 ± 13%.

Q: What about the activity at 0.78125 µM [1, 7] of the same compound?
A: The activity at 0.78125 µM was 91 ± 6%.

Q: And the activity at 1.5625 µM [1, 7]?
A: Its activity at 1.5625 µM is 84 ± 15%.

Q: What about the activity at 3.125 µM [1, 7] of the same compound?
A: Its activity at 3.125 µM is 74 ± 10%.

Q: And the activity at 6.25 µM [1, 7]?
A: The activity at 6.25 µM was 54 ± 4%.

Q: And the activity at 12.5 µM [1, 7]?
A: Its activity at 12.5 µM is 55 ± 5%.

Q: And the activity at 25 µM [1, 7]?
A: Its activity at 25 µM is 44 ± 3%.

Q: And the activity at 50 µM [1, 7]?
A: The activity at 50 µM was 29 ± 10%.

Q: What about the activity at 100 µM [1, 7] of the same compound?
A: Its activity at 100 µM is 21 ± 1%.

Q: And the activity at 200 µM [1, 7]?
A: The activity at 200 µM was 5 ± 1%.

Q: What about the activity at 400 µM [1, 7] of the same compound?
A: The activity at 400 µM was 6 ± 2%.

Q: And the IC50 ([1]; IC50 0 h, without preincubation)?
A: The IC50 was 56 ± 5 µM.

Q: And the IC50 ([1]; IC50 4 h, 4-h preincubation)?
A: The IC50 was 13 ± 2 µM.

Q: And the activity at 100 µM [1, 8]?
A: The activity at 100 µM was 11 ± 9%.

Q: What about the activity at 100 µM [1, 9] of the same compound?
A: The activity at 100 µM was 3.5 ± 0.2%.

Q: And the inhibition at 100 µM ([1]; read-out: enzyme inhibition)?
A: The inhibition at 100 µM was 96.5%.

Q: What about the Kobs ([2]; inhibitor 0.390625 µM) of the same compound?
A: Its Kobs is 0.003884 ± 0.002 s⁻¹.

Q: And the Kobs ([2]; inhibitor 0.78125 µM)?
A: The Kobs was 0.003327 ± 0.002 s⁻¹.

Q: And the Kobs ([2]; inhibitor 1.5625 µM)?
A: Its Kobs is 0.003467 ± 0.002 s⁻¹.

Q: What about the Kobs ([2]; inhibitor 3.125 µM) of the same compound?
A: Its Kobs is 0.003356 ± 0.002 s⁻¹.

Q: And the Kobs ([2]; inhibitor 6.25 µM)?
A: Its Kobs is 0.003415 ± 0.002 s⁻¹.

Q: What about the Kobs ([2]; inhibitor 12.5 µM) of the same compound?
A: Its Kobs is 0.003372 ± 0.002 s⁻¹.

Q: What about the Kobs ([2]; inhibitor 25 µM) of the same compound?
A: Its Kobs is 0.003515 ± 0.002 s⁻¹.

Q: What about the Kobs ([2]; inhibitor 50 µM) of the same compound?
A: Its Kobs is 0.003742 ± 0.001 s⁻¹.

Q: What about the Kobs ([2]; inhibitor 100 µM) of the same compound?
A: The Kobs was 0.004728 ± 0.001 s⁻¹.

Q: What about the Kobs ([2]; inhibitor 200 µM) of the same compound?
A: The Kobs was 0.006479 ± 0.003 s⁻¹.

Q: And the kinact/KI ([2]; slope of kobs vs inhibitor concentration)?
A: The kinact/KI was 17 M⁻¹ s⁻¹.

Q: What about the activity at 100 µM [3, 8] of the same compound?
A: The activity at 100 µM was 87 ± 10%.

Q: And the activity at 100 µM [3, 9]?
A: The activity at 100 µM was 79 ± 8%.

Q: What about the EC50 [4] of the same compound?
A: Its EC50 is over 200 µM.

Q: And the CC50 at 72 h [5]?
A: Its CC50 at 72 h is over 200 µM.
